From paper PMC9763612, “Discovery of pyrrole derivatives as acetylcholinesterase-sparing butyrylcholinesterase inhibitor” (Frontiers in Pharmacology, 2022)
Read-outs that look alike come from different tables or passages of the source.

Columns and labels:
[1] = molecular target: T1, eqBChE (BChE from equine serum) (Equus caballus, UniProt P81908); assay: biochemical
T1 construct: BChE (E.C. 3.1.1.8, from equine serum); purchased Sigma-Aldrich; host or cells: equine serum
Experimental: (§1) AChE (E.C. 3.1.1.7, Type V-S, lyophilized powder, from electric eel, 1000 unit), BChE (E.C. 3.1.1.8, from equine serum), ATCI, BTCI, and DTNB were purchased from Sigma-Aldrich. To the experimental group in a 96-well plate, 10 μl AChE or BChE (final concentration is 0.04 U/ml), 25 μl tested compounds, and 65 μl PBS buffer was sequentially added. For the control group, all components were in accordance with those in the experimental group, except that 25 μl tested compounds were replaced by equal volume of PBS. For the blank group, only 100 μl PBS was added. […] The calculation formula is: inhibition rate% = (ODcontrol-ODtest)/(ODcontrol-ODblank)*100.
3. Screen of the most appropriate incubation time for compounds and
In order to find the most appropriate incubation time for compounds and enzyme, to verify whether the incubation time of 25 min is appropriate, and to further improve […]
time, made the inhibition rate-incubation time curves (Figure S1), and calculated the IC50 values of these compounds under different incubation time (Table S1).

[2] = molecular target: T2, eeAChE (AChE from electric eel) (Electrophorus electricus, UniProt O42275); assay: biochemical; settings: incubation time 25 min; mean ± SD, at least three independent experiments
T2 construct: AChE (E.C. 3.1.1.7, Type V-S, lyophilized powder, from electric eel, 1000 unit); purchased Sigma-Aldrich Type V-S; host or cells: electric eel
Experimental: as §1

[3] = molecular target: T3, eqBChE (Equus caballus, UniProt P81908); assay: Inhibition kinetics of butyrylcholinesterase (reversibility, Lineweaver-Burk, Ki replot); format: biochemical
T3 construct: BChE (E.C. 3.1.1.8, from equine serum); purchased Sigma-Aldrich; host or cells: equine serum
Source text: According to the type of interaction between inhibitor and enzyme, there are three reaction types including the reversible, irreversible, and pseudo-irreversible reactions in the cholinesterase catalyzed reaction, and each type has its representative characteristics. By studying the reaction rate changes in enzymatic reactions in the presence of inhibitors, the mechanism of action of inhibitors on enzymes, viz the inhibition type could be determined, which is of great significance for further structural modification and the discovery of compounds with better enzyme inhibitory activity. To reveal the interaction between synthesized inhibitors and eq BChE, we initially chose compound 3p as an example and studied the reversibility of enzymatic reaction in the presence of inhibitor. When the final concentration of substrate BTCI was fixed at 0.2 mM, we deduced from Figure 2A that both compound 3p increased the enzymatic reaction rate to varying degrees with the increase of enzyme concentration. When both the concentrations of eq BChE and BTCI remained constant, the rate of the enzymatic reaction decreased with the increase of inhibitor concentration.
In the process of reversible inhibition reaction, inhibitors can be divided into competitive, non-competitive, mixed competitive, and anti-competitive inhibitors according to the effect of inhibitors and substrate on enzyme ([Liu et al., 2022]). […] For compound 3p, the Km values increased while the Vmax values decreased compared with those in the absence of inhibitors, which was not in accordance with the characteristics of competitive, non-competitive, and anti-competitive inhibitors. Therefore, non-competitive in combination with competitive inhibition and/or non-competitive in combination with anti-competitive inhibition maybe existed in the reaction systems of compound 3p with enzyme (Figure 2B). […] However, the binding affinity of compounds 3p with the free enzyme or the substrate-enzyme complex was different. […]

[4] = incubation time 25 min, mean ± SD, at least three independent experiments, read-out: IC50 eqBChE
[5] = incubation time 5 min, read-out: IC50 eqBChE under different incubation time
[6] = incubation time 10 min, read-out: IC50 eqBChE under different incubation time
[7] = incubation time 15 min, read-out: IC50 eqBChE under different incubation time
[8] = incubation time 45 min, read-out: IC50 eqBChE under different incubation time
[9] = incubation time 65 min, read-out: IC50 eqBChE under different incubation time
[10] = incubation time 85 min, read-out: IC50 eqBChE under different incubation time

T2 sequence (O42275 24-633): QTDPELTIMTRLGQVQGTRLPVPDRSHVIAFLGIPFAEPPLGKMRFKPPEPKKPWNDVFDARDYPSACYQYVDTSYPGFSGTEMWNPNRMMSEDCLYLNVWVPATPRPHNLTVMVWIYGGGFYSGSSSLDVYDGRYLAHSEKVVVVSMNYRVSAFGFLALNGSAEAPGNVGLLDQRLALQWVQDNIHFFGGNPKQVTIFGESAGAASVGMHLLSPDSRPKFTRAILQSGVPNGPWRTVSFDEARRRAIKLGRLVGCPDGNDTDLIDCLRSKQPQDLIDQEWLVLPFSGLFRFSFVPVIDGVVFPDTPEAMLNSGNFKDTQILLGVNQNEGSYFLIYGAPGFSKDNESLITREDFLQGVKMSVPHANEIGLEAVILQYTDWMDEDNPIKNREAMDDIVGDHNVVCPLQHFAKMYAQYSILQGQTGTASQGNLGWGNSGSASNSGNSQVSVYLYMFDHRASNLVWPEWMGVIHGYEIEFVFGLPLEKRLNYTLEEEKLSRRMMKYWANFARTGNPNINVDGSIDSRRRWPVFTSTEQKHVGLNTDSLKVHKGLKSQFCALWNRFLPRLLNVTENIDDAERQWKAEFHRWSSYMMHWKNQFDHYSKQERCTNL
T1 sequence (P81908 whole entry): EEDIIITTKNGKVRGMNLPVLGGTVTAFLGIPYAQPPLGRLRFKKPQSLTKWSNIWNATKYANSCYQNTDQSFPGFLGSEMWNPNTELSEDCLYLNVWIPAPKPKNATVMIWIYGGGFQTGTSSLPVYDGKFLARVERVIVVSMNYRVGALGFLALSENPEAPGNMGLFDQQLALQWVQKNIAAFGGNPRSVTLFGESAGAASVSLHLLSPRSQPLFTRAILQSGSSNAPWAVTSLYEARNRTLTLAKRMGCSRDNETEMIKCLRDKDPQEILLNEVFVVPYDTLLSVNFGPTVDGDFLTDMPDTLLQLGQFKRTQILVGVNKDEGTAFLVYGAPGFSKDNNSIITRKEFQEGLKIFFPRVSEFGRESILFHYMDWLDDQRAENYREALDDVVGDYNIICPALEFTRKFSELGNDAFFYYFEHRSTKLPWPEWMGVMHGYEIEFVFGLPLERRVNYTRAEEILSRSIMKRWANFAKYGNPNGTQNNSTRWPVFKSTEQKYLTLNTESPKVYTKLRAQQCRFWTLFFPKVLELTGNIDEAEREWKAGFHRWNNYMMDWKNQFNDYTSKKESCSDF
T3 sequence (P81908 whole entry): as above

SMILES: Cc1ccccc1-n1cccc1 [Compound 3a]
- IC50 [1, 4]: > 50 µM
- IC50 [2]: > 50 µM

SMILES: Clc1ccccc1-n1cccc1 [Compound 3b]
- IC50 [1, 4]: > 50 µM
- IC50 [2]: > 50 µM

SMILES: Cc1cccc(-n2cccc2)c1 [Compound 3c]
- IC50 [1, 4]: > 50 µM
- IC50 [2]: > 50 µM

SMILES: Brc1cccc(-n2cccc2)c1 [Compound 3d]
- IC50 [1, 4]: > 50 µM
- IC50 [2]: > 50 µM

SMILES: CC(C)c1ccc(-n2cccc2)cc1 [Compound 3e]
- IC50 [1, 4]: > 50 µM
- IC50 [2]: > 50 µM

SMILES: CSc1ccc(-n2cccc2)cc1 [Compound 3f]
- IC50 [1, 4]: > 50 µM
- IC50 [2]: > 50 µM

SMILES: Brc1ccc(-n2cccc2)cc1 [Compound 3g]
- IC50 [1, 4]: > 50 µM
- IC50 [2]: > 50 µM

SMILES: COC(=O)c1ccc(-n2cccc2)cc1 [Compound 3h]
- IC50 [1, 4]: > 50 µM
- IC50 [2]: > 50 µM

SMILES: Cc1cccc(C)c1-n1cccc1 [Compound 3i]
- IC50 [1, 4]: > 50 µM
- IC50 [2]: > 50 µM

SMILES: c1ccc(-n2cccc2)nc1 [Compound 3j]
- IC50 [1, 4]: > 50 µM
- IC50 [2]: > 50 µM

SMILES: Cc1cc(-n2cccc2)no1 [Compound 3k]
- IC50 [1, 4]: > 50 µM
- IC50 [2]: > 50 µM

SMILES: c1ccc2nc(-n3cccc3)cnc2c1 [Compound 3l]
- IC50 [1, 4]: > 50 µM
- IC50 [2]: > 50 µM

SMILES: c1ccc(Cc2ccn(-c3ccccc3)c2)cc1 [Compound 3m]
- IC50 [1, 4]: > 50 µM
- IC50 [2]: > 50 µM

SMILES: c1ccc(-c2ccn(-c3ccccc3)c2)cc1 [Compound 3n]
- IC50 [1, 4]: > 50 µM
- IC50 [2]: > 50 µM

SMILES: COc1ccccc1-c1ccn(-c2ccccc2)c1 [Compound 3o]
- IC50 [1, 5]: 4.8 ± 0.38 µM
- IC50 [1, 6]: 5.06 ± 1.2 µM
- IC50 [1, 7]: 6.87 ± 0.6 µM
- IC50 [1, 4]: 5.37 ± 0.36 µM
- IC50 [1, 8]: 6.67 ± 0.61 µM
- IC50 [1, 9]: 6.83 ± 0.24 µM
- IC50 [1, 10]: 7.63 ± 0.77 µM
- IC50 [2]: > 50 µM

SMILES: Clc1ccccc1-c1ccn(-c2ccccc2)c1 [Compound 3p]
- IC50 [1, 5]: 0.6 ± 0.1 µM
- IC50 [1, 6]: 0.48 ± 0.24 µM
- IC50 [1, 7]: 1.95 ± 0.13 µM
- IC50 [1, 4]: 1.71 ± 0.087 µM
- IC50 [1, 8]: 2.4 ± 0.11 µM
- IC50 [1, 9]: 3.27 ± 0.49 µM
- IC50 [1, 10]: 3.2 ± 0.092 µM
- IC50 [2]: > 50 µM
- Inhibition mode ([3]; Lineweaver-Burk plots): mixed competitive inhibition
- Reversibility of inhibition ([3]; rate vs. enzyme concentration, BTCI 0.2 mM): reversible
- Ki ([3]; replot of Lineweaver-Burk slopes vs. inhibitor concentration): 0.281 µM

SMILES: COc1cccc(-c2ccn(-c3ccccc3)c2)c1 [Compound 3q]
- IC50 [1, 4]: > 50 µM
- IC50 [2]: > 50 µM

SMILES: FC(F)(F)c1cccc(-c2ccn(-c3ccccc3)c2)c1 [Compound 3r]
- IC50 [1, 4]: > 50 µM
- IC50 [2]: > 50 µM

SMILES: c1ccc(-c2ccc(-c3ccn(-c4ccccc4)c3)cc2)cc1 [Compound 3s]
- IC50 [1, 5]: 5.87 ± 0.23 µM
- IC50 [1, 6]: 5.95 ± 0.3 µM
- IC50 [1, 7]: 6.05 ± 0.65 µM
- IC50 [1, 4]: 3.76 ± 0.25 µM
- IC50 [1, 8]: 4.41 ± 0.15 µM
- IC50 [1, 9]: 4.21 ± 0.075 µM
- IC50 [1, 10]: 4.38 ± 0.18 µM
- IC50 [2]: > 50 µM
